26 compounds from US20210155644A1, “CYCLOPENTENYL PURINE DERIVATIVE OR SALT THEREOF” (Fujifilm Corporation, priority 2018, published 2021) can be followed below.

One may read the EC50 as the concentration at which the effect is half-maximal.

Read-outs that look alike come from different tables or passages of the source. Some results are limits rather than exact numbers.

The assay relates to adenovirus type 6 (ADV6). The assay is described as follows: Evaluation of anti-adenovirus activity: CRL-11516 cells infected with ADV6, anti-hexon staining, count of stained cells. The class given is cell-based. As to conditions: CRL-11516 cells infected with ADV6, 48 hours culture, concentration reducing dark brown-stained cells by 50%, read-out: Anti-AdV activity EC50. On the procedure:
A system in which CRL-11516 cells (available from ATCC) were infected with adenovirus type 6 (hereinafter, referred to as ADV6) was constructed, and a test for evaluating the anti-adenovirus activity of the compound according to the embodiment of the present invention and the compound of Comparative Example was carried out using the system. The test for evaluating the anti-adenovirus activity was carried out according to the method described below.
CRL-11516 cells were added to a 96-well plate at a cell density of 1×10^4 cells/well and cultured at 37° C. for 24 hours. After the culture was completed, the cell culture liquid was removed, and a serial dilution (100 μL) of the compound according to the embodiment of the present invention or the compound of Comparative Example was added. ADV6 (corresponding to 50TCID50) was added thereto, followed by culturing at 37° C. for 48 hours.
After the culture was completed, the infected cells were stained using Adeno-X Rapid Titer Kit (manufactured by Takara Bio Inc.). 100% methanol was added thereto and the cells were fixed at −20° C. for 10 minutes. The plate was washed three times with phosphate buffered saline (hereinafter, referred to as PBS) and then Mouse Anti-Hexon Antibody was added thereto, followed by incubation at 37° C. for 1 hour. After the incubation was completed, the plate was washed three times with PBS, and Rat Anti-Mouse Antibody was added thereto, followed by incubation at 37° C. for 1 hour. After the incubation was completed, a mixed staining solution of Stable Peroxidase Buffer:DAB Substrate=10:1 was added thereto, followed by incubation at room temperature for 10 minutes for staining of the cells.
The number of dark brown-stained cells was counted under a microscope, and the concentration of the test drug that reduces the dark brown-stained cells by 50% was defined as EC50. EC50 values were calculated for the triplicate test results, and a mean value and a standard deviation thereof were determined.

`COc1nc(N)nc2c1ncn2[C@H]1C=C[C@@H](COP(=O)(N[C@@H](C)C(=O)OC(C)C)Oc2ccc3c(c2)OCO3)C1` (stereo partly drawn) [Example 6-2-21, isopropyl ((((1S,4R)-4-(2-amino-6-methoxy-9H-purin-9-yl)cyclopent-2-en-1-yl)methoxy)(benzo[d][1,3]dioxolo-5-yloxy)phosphoryl)-L-alaninate]: the EC50 was 10 to 100 nM.

As to `Nc1nc2c(ncn2[C@H]2C=C[C@@H](CO)C2)c(=O)[nH]1` [Example 1], the 50% effective concentration (EC50) (Human mastadenovirus C) lay in the range of 1000 to 10000 nM.

Take `COc1nc(N)nc2c1ncn2[C@H]1C=C[C@@H](COP(=O)(N[C@@H](C)C(=O)OC(C)C)Oc2ccc(Cl)cc2)C1` (stereo partly drawn) [Example 1-2-72, isopropyl ((((1S,4R)-4-(2-amino-6-methoxy-9H-purin-9-yl)cyclopent-2-en-1-yl)methoxy)(4-chlorophenoxy)phosphoryl)-L-alaninate]: under “Human mastadenovirus C, 48 h”, the EC50 was in the range of 10 to 100 nM.

As to `COC(=O)[C@H](C)NP(=O)(OC[C@@H]1C=C[C@H](n2cnc3c(Cl)nc(N)nc32)C1)Oc1ccc(Cl)cc1` (stereo partly drawn) [Example 1-2-4, methyl ((((1S,4R)-4-(2-amino-6-chloro-9H-purin-9-yl)cyclopent-2-en-1-yl)methoxy)(4-chlorophenoxy)phosphoryl)-L-alaninate], the concentration for a half-maximal effect (EC50) is under 10 nM.

Take `COC(=O)[C@H](C)NP(=O)(OCCSC(=O)C(C)(C)CO)OC[C@@H]1C=C[C@H](n2cnc3c(Cl)nc(N)nc32)C1` (stereo partly drawn) [Example 5-1, methyl ((((1 S,4R)-4-(2-amino-6-chloro-9H-purin-9-yl)cyclopent-2-en-1-yl)methoxy)(2-((3-hydroxy-2,2-dimethylpropanoyl)thio)ethoxy)phosphoryl)-L-alaninate]: the EC50 (Human mastadenovirus C) was in the range of 100 to 1000 nM.

Take `CC(C)OC(=O)[C@H](C)N[P@@](=O)(OC[C@@H]1C=C[C@H](n2cnc3c(OC(C)C)nc(N)nc32)C1)Oc1ccccc1` [Example 2-2-19, isopropyl ((R)-(((1S,4R)-4-(2-amino-6-isopropoxy-9H-purin-9-yl)cyclopent-2-en-1-yl)methoxy)(phenoxy)phosphoryl)-L-alaninate]: the EC50 (Human mastadenovirus C, 48 h) was in the range of 10 to 100 nM.

For the compound `CNc1nc(N)nc2c1ncn2[C@H]1C=C[C@@H](COP(=O)(N[C@@H](C)C(=O)OC)Oc2ccc(Br)cc2)C1` (stereo partly drawn) [Example 1-2-46, Methyl ((((1S,4R)-4-(2-amino-6-(methylamino)-9H-purin-9-yl)cyclopent-2-en-1-yl)methoxy)(4-bromophenoxy)phosphoryl)-L-alaninate], the EC50 (Human mastadenovirus C, 48 h) is under 10 nM.

Turning to `COCCOc1cccc(OP(=O)(N[C@@H](C)C(=O)OC(C)C)OC[C@@H]2C=C[C@H](n3cnc4c(OC)nc(N)nc43)C2)c1` (stereo partly drawn) [Example 6-2-23, isopropyl ((((1S,4R)-4-(2-amino-6-methoxy-9H-purin-9-yl)cyclopent-2-en-1-yl)methoxy)(3-(2-methoxyethoxy)phenoxy)phosphoryl)-L-alaninate], where the note is “Human mastadenovirus C, 48 h”, the 50% effective concentration (EC50) is under 10 nM.

Consider `COc1nc(N)nc2c1ncn2[C@H]1C=C[C@@H](COP(=O)(N[C@@H](C)C(=O)OC(C)C)Oc2ccccc2)C1` (stereo partly drawn) [Example 2-2-12, isopropyl ((((1S,4R)-4-(2-amino-6-methoxy-9H-purin-9-yl)cyclopent-2-en-1-yl)methoxy)(phenoxy)phosphoryl)-L-alaninate], for which the EC50 was in the range of 100 to 1000 nM.

With `COCCOc1nc(N)nc2c1ncn2[C@H]1C=C[C@@H](CO[P@](=O)(N[C@@H](C)C(=O)OC(C)C)Oc2ccccc2)C1` [Example 2-2-21, isopropyl ((R)-(((1S,4R)-4-(2-amino-6-(2-methoxyethoxy)-9H-purin-9-yl)cyclopent-2-en-1-yl)methoxy) (phenoxy)phosphoryl)-L-alaninate], the EC50 (Human mastadenovirus C, 48 h) lay in the range of 10 to 100 nM.

`COC(=O)[C@H](C)NP(=O)(OC[C@@H]1C=C[C@H](n2cnc3c(Cl)nc(N)nc32)C1)Oc1ccccc1` (stereo partly drawn) [Example 2-2-7, Methyl ((((1S,4R)-4-(2-amino-6-chloro-9H-purin-9-yl)cyclopent-2-en-1-yl)methoxy) (phenoxy)phosphoryl)-L-alaninate]: under “Human mastadenovirus C, 48 h”, the 50% effective concentration (EC50) is 10 to 100 nM.

In the case of “Isopropyl ((((1S,4R)-4-(2-amino-6-methoxy- 9H-purin-9-yl)cyclopent-2-en-1- yl)methoxy)(naphthalen-1-yloxy) phosphoryl)-L-alaninate [Example 6-2-26]”, the EC50 was 10 to 100 nM.

With `CC(C)OC(=O)[C@H](C)N[P@](=O)(OC[C@@H]1C=C[C@H](n2cnc3c(N(C)C)nc(N)nc32)C1)Oc1ccccc1` [Example 2-2-26, Isopropyl ((S)-(((1S,4R)-4-(2-amino-6-(dimethylamino)-9H-purin-9-yl)cyclopent-2-en-1-yl)methoxy) (phenoxy)phosphoryl)-L-alaninate], for the setting “Human mastadenovirus C, 48 h”, the half-maximal effective concentration (EC50) was 100 to 1000 nM.

In the case of `COC(=O)[C@H](C)NP(=O)(OCCSC(=O)C(C)(C)C)OC[C@@H]1C=C[C@H](n2cnc3c(OC)nc(N)nc32)C1` (stereo partly drawn) [Example 4-6-1, ((((1S,4R)-4-(2-amino-6-methoxy-9H-purin-9-yl)cyclopent-2-en-1-yl)methoxy)(2-(pivaloylthio)ethoxy)phosphoryl)-L-alaninate], the EC50 is under 10 nM.

For the compound `CCOc1nc(N)nc2c1ncn2[C@H]1C=C[C@@H](CO[P@@](=O)(N[C@@H](C)C(=O)OC(C)C)Oc2ccccc2)C1` [Example 2-2-18, Isopropyl ((S)-(((1S,4R)-4-(2-amino-6-ethoxy-9H-purin-9-yl)cyclopent-2-en-1-yl)methoxy) (phenoxy)phosphoryl)-L-alaninate], the concentration for a half-maximal effect (EC50) (Human mastadenovirus C, 48 h) fell in the range of 100 to 1000 nM.

In the case of `COC(=O)[C@H](C)NP(=O)(OC[C@@H]1C=C[C@H](n2cnc3c(OC)nc(N)nc32)C1)Oc1ccc(Br)cc1` (stereo partly drawn) [Example 1-2-3, methyl ((((1S,4R)-4-(2-amino-6-methoxy-9H-purin-9-yl)cyclopent-2-en-1-yl)methoxy)(4-bromophenoxy)phosphoryl)-L-alaninate], the concentration giving a half-maximal response (EC50) (Human mastadenovirus C, 48 h) is under 10 nM.

Take `COc1nc(N)nc2c1ncn2[C@H]1C=C[C@@H](COP(=O)(OCCSSCCOCc2ccccc2)OCCSSCCOCc2ccccc2)C1` [Example 1-2-8, ((1S,4R)-4-(2-amino-6-methoxy-9H-purin-9-yl)cyclopent-2-en-1-yl)methylbis(2-((2-(benzyloxy)ethyl)disulfanyl)ethyl)phosphate]: the half-maximal effective concentration (EC50) fell in the range of 10 to 100 nM.

Take `COc1nc(N)nc2c1ncn2[C@H]1C=C[C@@H](COP(=O)(N[C@@H](C)C(=O)OC(C)C)Oc2ccc(Cl)cc2)C1` (single isomer, unassigned) [Example 4-8-2]: the EC50 was under 10 nM.

With `COc1nc(N)nc2c1ncn2[C@H]1C=C[C@@H](COP(=O)(N[C@@H](CC(C)C)C(=O)OC(C)C)Oc2ccccc2)C1` (single isomer, unassigned) [Example 7-1-1], the concentration for a half-maximal effect (EC50) lay in the range of 10 to 100 nM.

Turning to `COc1nc(N)nc2c1ncn2[C@H]1C=C[C@@H](COP(=O)(N[C@@H](C)C(=O)OC(C)C)Oc2ccccc2)C1` (stereo partly drawn) [Example 4-4-2, Isopropyl ((((1 S,4R)-4-(2-amino-6-methoxy-9H-purin-9-yl)cyclopent-2-en-1-yl)methoxy)(phenoxy)phosphoryl)-L-alaninate], the EC50 fell in the range of 100 to 1000 nM.

With `CCOC(=O)[C@H](C)NP(=O)(OC[C@@H]1C=C[C@H](n2cnc3c(OC)nc(N)nc32)C1)Oc1ccccc1` (stereo partly drawn) [Example 1-2-34, ethyl ((((1S,4R)-4-(2-amino-6-methoxy-9H-purin-9-yl)cyclopent-2-en-1-yl)methoxy)(phenoxy)phosphoryl)-L-alaninate], the EC50 (Human mastadenovirus C, 48 h) was in the range of 10 to 100 nM.

For `CCOc1nc(N)nc2c1ncn2[C@H]1C=C[C@@H](CO[P@](=O)(N[C@@H](C)C(=O)OC(C)C)Oc2ccccc2)C1` [Example 2-2-17, isopropyl ((R)-(((1S,4R)-4-(2-amino-6-ethoxy-9H-purin-9-yl)cyclopent-2-en-1-yl)methoxy)(phenoxy)phosphoryl)-L-alaninate], for the setting “Human mastadenovirus C, 48 h”, the EC50 was under 10 nM.

For `COc1nc(N)nc2c1ncn2[C@H]1C=C[C@@H](COP(=O)(N[C@@H](C)C(=O)OC(C)C)Oc2ccc(Cl)cc2)C1` (single isomer, unassigned) [Example 4-8-1], the concentration giving a half-maximal response (EC50) was in the range of 10 to 100 nM.

Turning to `CC(C)OC(=O)[C@H](C)NP(=O)(OC[C@@H]1C=C[C@H](n2cnc3c(Cl)nc(N)nc32)C1)Oc1ccccc1` (stereo partly drawn) [Example 4-3-1, Isopropyl ((((1 S,4R)-4-(2-amino-6-chloro-9H-purin-9-yl)cyclopent-2-en-1-yl)methoxy)(phenoxy)phosphoryl)-L-alaninate], the EC50 was 10 to 100 nM.

Take `CC(C)OC(=O)[C@H](C)N[P@@](=O)(OC[C@@H]1C=C[C@H](n2cnc3c(N4CCC4)nc(N)nc32)C1)Oc1ccccc1` [Example 2-2-37, isopropyl ((R)-(((1S,4R)-4-(2-amino-6-(azetidin-1-yl)-9H-purin-9-yl)cyclopent-2-en-1-yl)methoxy)(phenoxy)phosphoryl)-L-alaninate]: the concentration for a half-maximal effect (EC50) (Human mastadenovirus C, 48 h) lay within 10 to 100 nM.

Regarding `CNc1nc(N)nc2c1ncn2[C@H]1C=C[C@@H](CO[P@](=O)(N[C@@H](C)C(=O)OC(C)C)Oc2ccccc2)C1` [Example 2-2-29], the EC50 lay in the range of 10 to 100 nM.
